Test results as given in US10683293B2, “Optionally fused heterocyclyl-substituted derivatives of pyrimidine useful for the treatment of inflammatory, metabolic, oncologic and autoimmune diseases” (NUEVOLUTION A/S, priority 2014, dated 2020).

How the values were obtained:
[1] = molecular target: T1, human RORγt (Ligand Binding Domain) (Homo sapiens, UniProt P51449); assay: Fluorescence Polarization (FP) Assay; conditions: 100 nM human RORγt LBD, 25 nM TAMRA probe, values are activity range bounds
T1 construct: purchased Crelux (Planegg, Germany) batch no PC5032-1
T1 sequence (P51449 269-508 limits assumed): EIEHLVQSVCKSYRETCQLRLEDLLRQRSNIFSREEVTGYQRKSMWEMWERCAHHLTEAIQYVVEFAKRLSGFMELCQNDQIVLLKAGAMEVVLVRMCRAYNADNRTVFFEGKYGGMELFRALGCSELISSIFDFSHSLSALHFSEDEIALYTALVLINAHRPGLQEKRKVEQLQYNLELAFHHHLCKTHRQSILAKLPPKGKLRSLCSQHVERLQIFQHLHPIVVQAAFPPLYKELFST
In short: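 Binding to the RORγt ligand-binding domain was followed by FP. Displacement of a TAMRA-tagged RORγt ligand tracer (910 g/mol) was measured, with DMSO-only wells as negative control.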

[2] = molecular target: T2, ligand binding domain of human RORγ (Homo sapiens, UniProt P51449); assay: RORγ Reporter Assay (Gal4); format: cell-based; conditions: for inhibition at 1 µM: HEK-293T, read-out: Gal4 activity range @ 1 μM (% inhibition); for Gal4 activity range @ 0.1 μM (% inhibition): RORγ Reporter Assay (Gal4), HEK293t reporter cells, compound at 0.1 μM, values are activity range bounds
T2 construct: host or cells: HEK293t
T2 sequence (P51449 269-508 limits assumed): T1 sequence (P51449 269-508 limits assumed)
In short: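 HEK293t cells expressing Gal4 DBD–human RORγ LBD hybrid with Gal4-UAS firefly luciferase reporter; compounds at final 1,000 nM and 100 nM (0.1% DMSO), triplicate, medium with 10% charcoal-stripped FBS, 24 h at 37 °C. Luminescence read; percent reduction of RORγ activity calculated versus vehicle-only wells.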

[3] = 1 μM test compound, HEK293t RORγ reporter cells, 24 hour

IC50 [1] | inhibition at 1 µM [2, 3] | Gal4 activity range @ 0.1 μM (% inhibition) [2] | Gal4 activity range @ 1 μM (% inhibition) ([2]; 1 μM test compound, HEK293t RORγ reporter cells, 24 hour, 1 µM) | Structure (SMILES)
< 2 µM | > 80% | >20 % inhibition |  | CS(=O)(=O)c1ccc(CNc2ncnc(N(Cc3ccc(C(F)(F)F)cn3)C3CC3)c2F)cn1 [Example A108, N4-cyclopropyl-5-fluoro-N6-[(6-methylsulfonyl-3-pyridyl)methyl]-N4-[[5-(trifluoromethyl)-2-pyridyl]methyl]pyrimidine-4,6-diamine]
< 0.5 µM | > 80% | >0 % inhibition |  | CS(=O)(=O)Nc1ncc(CNc2ncnc(N(Cc3ccc(C(F)(F)F)cc3)C3CC3)c2F)cc1F [Example A109, N-[5-[[[6-[cyclopropyl-[[4-(trifluoromethyl)phenyl]methyl]amino]-5-fluoro-pyrimidin-4-yl]amino]methyl]-3-fluoro-2-pyridyl]methanesulfonamide]
< 2 µM | > 50% | >0 % inhibition |  | CS(=O)(=O)c1ccc(CNc2ncnc(N(Cc3ccc(C(F)(F)F)nc3)C3CC3)c2F)cn1 [Example A110, N4-cyclopropyl-5-fluoro-N6-[(6-methylsulfonyl-3-pyridyl)methyl]-N4-[[6-(trifluoromethyl)-3-pyridyl]methyl]pyrimidine-4,6-diamine]
< 0.5 µM | > 80% | >20 % inhibition |  | COc1ccc2cc(CN(C)c3ncnc(NCc4ccc(CC(N)=O)cc4)c3F)ccc2c1 [Example A120, 2-[4-[[[5-fluoro-6-[(6-methoxy-2-naphthyl)methyl-methyl-amino]pyrimidin-4-yl]amino]methyl]phenyl]acetamide]
< 0.5 µM |  | >0 % inhibition | >20% | CCCn1nc(C)cc1CN(C)c1ncnc(NCc2ccc(CC(N)=O)cc2)c1F [Example A124, 2-[4-[[[5-fluoro-6-[methyl-[(5-methyl-2-propyl-pyrazol-3-yl)methyl]amino]pyrimidin-4-yl]amino]methyl]phenyl]acetamide]
< 0.5 µM | > 50% | >0 % inhibition |  | Cc1nc(C)c(C(C)N(C)c2ncnc(NCc3ccc(CC(N)=O)cc3)c2F)s1 (stereo not shown) [Example A125, 2-[4-[[[6-[1-(2,4-dimethylthiazol-5-yl)ethyl-methyl-amino]-5-fluoro-pyrimidin-4-yl]amino]methyl]phenyl]acetamide]
< 0.5 µM | > 20% | >0 % inhibition |  | Cc1ccc(CN(C)c2ncnc(NCc3ccc(CC(N)=O)cc3)c2F)c(C)c1 [Example A138, 2-[4-[[[6-[(2,4-dimethylphenyl)methyl-methyl-amino]-5-fluoro-pyrimidin-4-yl]amino]methyl]phenyl]acetamide]
< 0.5 µM | > 50% | >0 % inhibition |  | CN(Cc1cccc(-n2cccn2)c1)c1ncnc(NC[C@H]2CC[C@H](NS(=O)(=O)C(F)(F)F)CC2)c1F [Example A142, 1,1,1-trifluoro-N-[4-[[[5-fluoro-6-[methyl-[(3-pyrazol-1-ylphenyl)methyl]amino]pyrimidin-4-yl]amino]methyl]cyclohexyl] methanesulfonamide]
< 0.5 µM | > 80% | >20 % inhibition |  | CN(Cc1cccc(-n2cccn2)c1)c1ncnc(NCC2CCN(S(C)(=O)=O)CC2)c1F [Example A143, 5-fluoro-N6-methyl-N4-[(1-methylsulfonyl-4-piperidyl)methyl]-N6-[(3-pyrazol-1-ylphenyl)methyl]pyrimidine-4,6-diamine]
< 0.5 µM | > 50% | >0 % inhibition |  | CCN(CC1COc2ccccc2O1)c1ncnc(NCc2ccc(CC(N)=O)cc2)c1F (stereo not shown) [Example A145, 2-[4-[[[6-[2,3-dihydro-1,4-benzodioxin-3-ylmethyl(ethyl)amino]-5-fluoro-pyrimidin-4-yl]amino]methyl]phenyl]acetamide]
< 0.5 µM | > 80% | >50 % inhibition |  | CS(=O)(=O)c1ccc(CCNc2ncnc(N(Cc3ccc(C(F)(F)F)cc3)C3CC3)c2F)cc1 [Example A147, N4-cyclopropyl-5-fluoro-N6-[2-(4-methylsulfonylphenyl)ethyl]-N4-[[4-(trifluoromethyl)phenyl]methyl] pyrimidine-4,6-diamine]
< 0.5 µM | > 20% | >0 % inhibition |  | CCCn1nc(C)cc1CN(C)c1ncnc(NCC2CCN(S(C)(=O)=O)CC2)c1F [Example A148, 5-fluoro-N4-methyl-N4-[(5-methyl-2-propyl-pyrazol-3-yl)methyl]-N6-[(1-methylsulfonyl-4-piperidyl)methyl]pyrimidine-4,6-diamine]
< 0.5 µM | > 20% |  |  | CCCn1nc(C)cc1CN(C)c1ncnc(NCC2CCN(S(=O)(=O)C(F)F)CC2)c1F [Example A149, N6-[[1-(difluoromethylsulfonyl)-4-piperidyl]methyl]-5-fluoro-N4-methyl-N4-[(5-methyl-2-propyl-pyrazol-3-yl)methyl]pyrimidine-4,6-diamine]
< 2 µM | > 20% |  |  | CCCn1nc(C)cc1CN(C)c1ncnc(NCc2ccc(CC(=O)O)cc2)c1F [Example A150, 2-[4-[[[5-fluoro-6-[methyl-[(5-methyl-2-propyl-pyrazol-3-yl)methyl]amino]pyrimidin-4-yl]amino]methyl]phenyl]acetic acid]
< 1 µM | > 50% | >0 % inhibition |  | CN(C)CCNC(=O)CC1(CNc2ncnc(N(Cc3ccc(C(F)(F)F)cc3)C3CC3)c2F)CCOCC1 [Example A151, 2-[4-[[[6-[cyclopropyl-[[4-(trifluoromethyl)phenyl]methyl]amino]-5-fluoro-pyrimidin-4-yl]amino]methyl]tetrahydropyran-4-yl]-N-(2-dimethylaminoethyl)acetamide]
< 1 µM | > 50% | >20 % inhibition |  | NC(=O)Cc1ccc(CNc2ncnc3c2ccn3Cc2ccc(C(F)(F)F)cc2)cc1 [Example A164, 2-[4-[[[7-[[4-(trifluoromethyl)phenyl]methyl]pyrrolo[2,3-d]pyrimidin-4-yl]amino]methyl]phenyl]acetamide]
< 0.5 µM | > 80% | >50 % inhibition |  | CS(=O)(=O)N1CCC(C2(Nc3ncnc(N(Cc4ccc(C(F)(F)F)cc4)C4CC4)c3F)CC2)CC1 [Example A165, N6-cyclopropyl-5-fluoro-N4-[1-(1-methylsulfonyl-4-piperidyl)cyclopropyl]-N6-[[4-(trifluoromethyl)phenyl]methyl] pyrimidine-4,6-diamine]
< 0.5 µM | > 80% | >50 % inhibition |  | O=C(C1CC1)N1CCC(CNc2ncnc(N(Cc3ccc(C(F)(F)F)cc3)C3CC3)c2F)CC1 [Example A167, cyclopropyl-[4-[[[6-[cyclopropyl-[[4-(trifluoromethyl)phenyl]methyl]amino]-5-fluoro-pyrimidin-4-yl]amino]methyl]-1-piperidyl]methanone]
< 0.5 µM | > 80% | >50 % inhibition |  | NC(=O)Cc1ccc(CNc2ncnc(N(Cc3ccc(C(F)(F)F)cc3O)C3CC3)c2F)cc1 [Example A168, 2-[4-[[[6-[cyclopropyl-[[2-hydroxy-4-(trifluoromethyl)phenyl]methyl]amino]-5-fluoro-pyrimidin-4-yl]amino]methyl]phenyl]acetamide]
< 0.5 µM | > 80% | >80 % inhibition |  | CS(=O)(=O)N1CCC2(CC1)CC2Nc1ncnc(N(Cc2ccc(C(F)(F)F)cc2)C2CC2)c1F (stereo not shown) [Example A169, N6-cyclopropyl-5-fluoro-N4-(6-methylsulfonyl-6-azaspiro[2.5]octan-2-yl)-N6-[[4-(trifluoromethyl)phenyl]methyl] pyrimidine-4,6-diamine]
< 0.5 µM | > 50% | >20 % inhibition |  | NC(=O)Cc1ccc(CNc2ncnc(N(Cc3ccnc(C(F)(F)F)c3)C3CC3)c2F)cc1 [Example A170, 2-[4-[[[6-[cyclopropyl-[[2-(trifluoromethyl)-4-pyridyl]methyl]amino]-5-fluoro-pyrimidin-4-yl]amino]methyl]phenyl]acetamide]

Structure (SMILES) | IC50 [1] | inhibition at 1 µM [2, 3] | Gal4 activity range @ 0.1 μM (% inhibition) [2] | Gal4 activity range @ 1 μM (% inhibition) ([2]; 1 μM test compound, HEK293t RORγ reporter cells, 24 hour, 1 µM)
CS(=O)(=O)N1[C@@H]2CC[C@H]1CC(CNc1ncnc(N(Cc3ccc(C(F)(F)F)cc3)C3CC3)c1F)C2 (stereo partly drawn) [Example A171, N6-cyclopropyl-5-fluoro-N4-[[(1S,5R)-8-methylsulfonyl-8-azabicyclo[3.2.1]octan-3-yl]methyl]-N6-[[4-(trifluoromethyl)phenyl]methyl] pyrimidine-4,6-diamine] | < 0.5 µM | > 80% | >80 % inhibition | 
